Measured values from paper PMC9814781, “Structure-based design of a dual-warhead covalent inhibitor of FGFR4” (Communications Chemistry, 2022).

What was measured:
Assay in all cases: Kinase selectivity profiling
TIE2 = TIE2 (Homo sapiens, UniProt Q02763)
JAK1 = JAK1 (Homo sapiens, UniProt P23458)
CK1γ2 = CK1γ2 (Homo sapiens, UniProt P78368)
AKT3 = AKT3 (Homo sapiens, UniProt Q9Y243)
LYNa = LYNa (Homo sapiens, UniProt P07948)
CDK3/CycE1 = CDK3/CycE1 (Homo sapiens, UniProt Q00526)
p70S6K = p70S6K (Homo sapiens, UniProt P23443)
CDK5/p35NCK = CDK5/p35NCK (Homo sapiens, UniProt Q00535)
SGK = SGK (Homo sapiens, UniProt O00141)
CDK2/CycE1 = CDK2/CycE1 (Homo sapiens, UniProt P24941)
MINK = MINK (Homo sapiens, UniProt Q8N4C8)
EPHB1 = EPHB1 (Homo sapiens, UniProt P54762)
EPHB1, sequence (P54762 18-984): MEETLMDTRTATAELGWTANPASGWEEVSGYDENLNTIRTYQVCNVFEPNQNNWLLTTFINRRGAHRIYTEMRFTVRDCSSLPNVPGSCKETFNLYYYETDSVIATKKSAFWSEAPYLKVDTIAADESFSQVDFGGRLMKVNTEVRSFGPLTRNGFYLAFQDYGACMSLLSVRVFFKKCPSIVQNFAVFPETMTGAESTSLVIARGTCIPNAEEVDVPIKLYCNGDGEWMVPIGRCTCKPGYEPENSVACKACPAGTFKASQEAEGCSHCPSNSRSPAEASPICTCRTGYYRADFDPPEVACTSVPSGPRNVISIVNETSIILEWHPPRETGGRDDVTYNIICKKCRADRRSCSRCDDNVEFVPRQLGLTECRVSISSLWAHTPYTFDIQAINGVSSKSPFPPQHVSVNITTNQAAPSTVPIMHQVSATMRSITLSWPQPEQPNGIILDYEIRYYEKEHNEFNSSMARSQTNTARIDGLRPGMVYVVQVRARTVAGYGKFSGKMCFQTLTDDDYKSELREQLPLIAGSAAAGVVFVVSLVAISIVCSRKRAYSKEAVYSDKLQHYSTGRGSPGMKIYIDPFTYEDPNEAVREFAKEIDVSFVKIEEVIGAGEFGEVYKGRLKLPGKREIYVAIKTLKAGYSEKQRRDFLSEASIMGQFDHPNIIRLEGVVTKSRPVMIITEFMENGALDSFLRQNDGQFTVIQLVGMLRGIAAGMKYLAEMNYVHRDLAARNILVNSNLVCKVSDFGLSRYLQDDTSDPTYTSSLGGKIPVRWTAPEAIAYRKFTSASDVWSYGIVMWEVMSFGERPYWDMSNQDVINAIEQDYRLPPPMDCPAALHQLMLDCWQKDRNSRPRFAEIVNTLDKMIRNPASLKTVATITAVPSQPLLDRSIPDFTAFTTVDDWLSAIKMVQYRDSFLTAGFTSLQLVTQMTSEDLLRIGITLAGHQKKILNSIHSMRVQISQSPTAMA

CDK18/CycY = CDK18/CycY (Homo sapiens, UniProt Q07002)
CSK = CSK (Homo sapiens, UniProt P41240)
EPHA3 = EPHA3 (Homo sapiens, UniProt P29320)
DCAMKL1 = DCAMKL1 (Homo sapiens, UniProt O15075)
CLK3 = CLK3 (Homo sapiens, UniProt P49761)
DYRK2 = DYRK2 (Homo sapiens, UniProt Q92630)
TGFβR2 = TGFβR2 (Homo sapiens, UniProt P37173)
RSK1 = RSK1 (Homo sapiens, UniProt Q15418)
RSK1, sequence (Q15418 whole entry): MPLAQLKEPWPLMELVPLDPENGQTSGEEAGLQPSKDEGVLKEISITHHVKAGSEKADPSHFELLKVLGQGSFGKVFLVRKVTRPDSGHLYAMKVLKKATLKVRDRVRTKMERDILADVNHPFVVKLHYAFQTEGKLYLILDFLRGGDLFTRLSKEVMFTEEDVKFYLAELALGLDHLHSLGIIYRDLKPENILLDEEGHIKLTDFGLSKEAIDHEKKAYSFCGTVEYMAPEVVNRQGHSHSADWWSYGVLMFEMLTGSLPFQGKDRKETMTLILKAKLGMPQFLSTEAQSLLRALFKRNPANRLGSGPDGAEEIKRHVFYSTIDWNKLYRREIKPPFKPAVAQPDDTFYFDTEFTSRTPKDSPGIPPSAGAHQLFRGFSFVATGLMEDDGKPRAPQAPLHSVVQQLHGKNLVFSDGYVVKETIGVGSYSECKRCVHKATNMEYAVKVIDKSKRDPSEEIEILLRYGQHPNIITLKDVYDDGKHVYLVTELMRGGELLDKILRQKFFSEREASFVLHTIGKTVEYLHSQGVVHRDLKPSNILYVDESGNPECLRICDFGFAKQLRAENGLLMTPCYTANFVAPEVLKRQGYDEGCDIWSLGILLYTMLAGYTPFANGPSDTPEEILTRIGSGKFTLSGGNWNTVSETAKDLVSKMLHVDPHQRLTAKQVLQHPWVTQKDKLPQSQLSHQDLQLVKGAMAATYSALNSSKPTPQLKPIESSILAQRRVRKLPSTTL

DCAMKL2 = DCAMKL2 (Homo sapiens, UniProt Q8N568)
PLK2 = PLK2 (Homo sapiens, UniProt Q9NYY3)
TAOK2 = TAOK2 (Homo sapiens, UniProt Q9UL54)
TYK2 = TYK2 (Homo sapiens, UniProt P29597)
LYNb = LYNb (Homo sapiens, UniProt P07948)
FER = FER (Homo sapiens, UniProt P16591)
CK1γ1 = CK1γ1 (Homo sapiens, UniProt Q9HCP0)
MST2 = MST2 (Homo sapiens, UniProt Q13188)
CDK1/CycA2 = CDK1/CycA2 (Homo sapiens, UniProt P06493)
FLT4 (VEGFR3) = FLT4 (VEGFR3) (Homo sapiens, UniProt P35916)
SYK = SYK (Homo sapiens, UniProt P43405)
CK1δ = CK1δ (Homo sapiens, UniProt P48730)
CK1δ, sequence (P48730 whole entry): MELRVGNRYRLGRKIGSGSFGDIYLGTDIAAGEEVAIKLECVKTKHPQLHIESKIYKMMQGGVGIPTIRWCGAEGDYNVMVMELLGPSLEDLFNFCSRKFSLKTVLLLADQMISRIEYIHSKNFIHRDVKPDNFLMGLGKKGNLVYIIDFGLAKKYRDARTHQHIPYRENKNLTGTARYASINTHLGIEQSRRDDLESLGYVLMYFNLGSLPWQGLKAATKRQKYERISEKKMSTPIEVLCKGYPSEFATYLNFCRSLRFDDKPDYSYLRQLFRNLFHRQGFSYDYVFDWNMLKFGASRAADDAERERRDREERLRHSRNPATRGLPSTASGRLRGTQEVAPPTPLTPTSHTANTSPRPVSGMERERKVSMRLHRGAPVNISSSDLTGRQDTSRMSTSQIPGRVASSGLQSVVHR

EPHB2 = EPHB2 (Homo sapiens, UniProt P29323)
PI3K(p120gamma) = PI3K(p120gamma) (Homo sapiens, UniProt P48736)
BRK = BRK (Homo sapiens, UniProt Q13882)
RSK4 = RSK4 (Homo sapiens, UniProt Q9UK32)
HIPK1 = HIPK1 (Homo sapiens, UniProt Q86Z02)
PAK1 = PAK1 (Homo sapiens, UniProt Q13153)
FRK = FRK (Homo sapiens, UniProt P42685)
CLK1 = CLK1 (Homo sapiens, UniProt P49759)
RET = RET (Homo sapiens, UniProt P07949)

JAK1, sequence (P23458 whole entry): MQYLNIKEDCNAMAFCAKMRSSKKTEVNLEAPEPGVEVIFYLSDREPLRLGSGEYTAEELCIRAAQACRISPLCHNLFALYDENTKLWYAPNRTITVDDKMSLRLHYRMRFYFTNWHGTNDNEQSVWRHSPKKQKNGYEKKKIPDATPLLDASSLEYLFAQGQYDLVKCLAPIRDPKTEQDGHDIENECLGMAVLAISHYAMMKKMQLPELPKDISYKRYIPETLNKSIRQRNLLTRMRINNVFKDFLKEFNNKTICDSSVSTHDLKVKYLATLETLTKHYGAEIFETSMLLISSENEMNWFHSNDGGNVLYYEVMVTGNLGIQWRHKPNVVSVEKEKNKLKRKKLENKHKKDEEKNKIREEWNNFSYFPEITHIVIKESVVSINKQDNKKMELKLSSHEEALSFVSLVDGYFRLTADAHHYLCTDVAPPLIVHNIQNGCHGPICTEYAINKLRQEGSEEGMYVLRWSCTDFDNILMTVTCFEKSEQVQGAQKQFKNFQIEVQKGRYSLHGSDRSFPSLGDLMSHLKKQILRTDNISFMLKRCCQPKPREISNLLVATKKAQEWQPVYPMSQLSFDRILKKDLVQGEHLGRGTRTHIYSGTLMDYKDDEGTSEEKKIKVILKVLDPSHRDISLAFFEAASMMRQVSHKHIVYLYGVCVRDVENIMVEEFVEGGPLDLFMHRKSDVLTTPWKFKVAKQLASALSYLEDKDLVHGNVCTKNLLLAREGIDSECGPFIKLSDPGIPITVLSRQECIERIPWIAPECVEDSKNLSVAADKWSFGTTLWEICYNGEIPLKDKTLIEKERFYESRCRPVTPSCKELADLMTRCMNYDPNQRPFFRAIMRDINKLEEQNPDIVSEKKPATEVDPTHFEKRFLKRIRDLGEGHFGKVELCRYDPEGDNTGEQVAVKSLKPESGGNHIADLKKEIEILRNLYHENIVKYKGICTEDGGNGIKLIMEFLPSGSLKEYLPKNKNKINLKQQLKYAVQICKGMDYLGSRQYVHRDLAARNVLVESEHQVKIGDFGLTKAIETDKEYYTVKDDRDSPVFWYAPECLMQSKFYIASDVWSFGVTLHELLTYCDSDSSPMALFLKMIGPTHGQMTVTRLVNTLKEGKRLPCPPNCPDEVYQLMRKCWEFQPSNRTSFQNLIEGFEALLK
LYNa, sequence (P07948 whole entry): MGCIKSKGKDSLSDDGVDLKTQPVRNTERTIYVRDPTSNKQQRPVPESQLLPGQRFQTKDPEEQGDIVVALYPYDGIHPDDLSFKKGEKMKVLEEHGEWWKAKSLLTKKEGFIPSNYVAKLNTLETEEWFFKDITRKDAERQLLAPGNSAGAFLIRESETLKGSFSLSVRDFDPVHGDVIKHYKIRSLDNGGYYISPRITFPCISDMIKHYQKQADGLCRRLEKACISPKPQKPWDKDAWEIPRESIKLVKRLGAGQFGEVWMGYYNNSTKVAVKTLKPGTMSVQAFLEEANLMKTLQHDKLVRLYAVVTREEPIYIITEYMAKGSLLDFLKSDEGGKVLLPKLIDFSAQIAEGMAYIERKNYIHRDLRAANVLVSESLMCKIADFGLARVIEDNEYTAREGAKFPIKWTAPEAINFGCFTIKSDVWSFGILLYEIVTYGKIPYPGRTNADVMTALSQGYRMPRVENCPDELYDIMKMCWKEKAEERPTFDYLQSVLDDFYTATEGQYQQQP
TIE2, sequence (Q02763 23-1124): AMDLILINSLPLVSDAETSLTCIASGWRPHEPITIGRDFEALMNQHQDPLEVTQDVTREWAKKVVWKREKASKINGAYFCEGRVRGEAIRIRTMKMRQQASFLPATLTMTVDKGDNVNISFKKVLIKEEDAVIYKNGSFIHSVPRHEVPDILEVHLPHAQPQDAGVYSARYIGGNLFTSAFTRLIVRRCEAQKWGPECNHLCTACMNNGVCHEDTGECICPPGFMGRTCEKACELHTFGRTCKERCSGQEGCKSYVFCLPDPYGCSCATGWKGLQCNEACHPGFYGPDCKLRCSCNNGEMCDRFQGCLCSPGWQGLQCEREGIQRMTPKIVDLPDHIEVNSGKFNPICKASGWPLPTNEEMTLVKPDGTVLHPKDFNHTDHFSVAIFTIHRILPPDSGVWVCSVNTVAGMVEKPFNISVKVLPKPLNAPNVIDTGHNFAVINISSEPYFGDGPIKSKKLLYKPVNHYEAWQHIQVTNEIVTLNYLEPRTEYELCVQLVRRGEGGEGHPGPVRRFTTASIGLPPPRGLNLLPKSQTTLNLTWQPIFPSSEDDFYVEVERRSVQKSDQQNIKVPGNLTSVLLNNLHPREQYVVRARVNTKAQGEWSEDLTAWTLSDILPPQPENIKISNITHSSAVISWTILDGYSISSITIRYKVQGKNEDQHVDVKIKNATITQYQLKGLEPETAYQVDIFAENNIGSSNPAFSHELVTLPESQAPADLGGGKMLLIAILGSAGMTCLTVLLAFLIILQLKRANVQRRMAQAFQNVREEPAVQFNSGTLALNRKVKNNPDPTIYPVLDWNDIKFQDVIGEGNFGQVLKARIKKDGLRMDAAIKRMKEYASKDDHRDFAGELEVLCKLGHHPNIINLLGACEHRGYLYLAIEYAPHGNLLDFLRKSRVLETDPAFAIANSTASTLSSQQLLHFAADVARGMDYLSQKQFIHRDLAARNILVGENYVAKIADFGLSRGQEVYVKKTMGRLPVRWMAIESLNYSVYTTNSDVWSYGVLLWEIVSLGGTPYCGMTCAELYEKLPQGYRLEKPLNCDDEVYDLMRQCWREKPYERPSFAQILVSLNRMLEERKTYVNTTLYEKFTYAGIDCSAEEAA

C=CC(=O)Nc1ccccc1Nc1ncc2c(n1)N(CCCN1CCN(C(=O)C=C)CC1)C(=O)N(c1cc(OC)cc(OC)c1)C2 [CXF-009]
inhibition at 1 µM (TIE2): -12.8% | inhibition at 1 µM (JAK1): -12.3% | inhibition at 1 µM (CK1γ2): -4.8% | inhibition at 1 µM (AKT3): -0.52% | inhibition at 1 µM (LYNa): -2.53% | inhibition at 1 µM (CDK3/CycE1): -7.17% | inhibition at 1 µM (p70S6K): 1.69% | inhibition at 1 µM (CDK5/p35NCK): -0.87% | inhibition at 1 µM (SGK): 2.9% | inhibition at 1 µM (CDK2/CycE1): 1.59% | inhibition at 1 µM (MINK): 16.6% | inhibition at 1 µM (EPHB1): -1.49% | inhibition at 1 µM (CDK18/CycY): -3.74% | inhibition at 1 µM (CSK): 3.29% | inhibition at 1 µM (EPHA3): -1.81% | inhibition at 1 µM (DCAMKL1): 13.4% | inhibition at 1 µM (CLK3): -0.52% | inhibition at 1 µM (DYRK2): 0.38% | inhibition at 1 µM (TGFβR2): -10.4% | inhibition at 1 µM (RSK1): -2.52% | inhibition at 1 µM (DCAMKL2): 18.9% | inhibition at 1 µM (PLK2): -19.5% | inhibition at 1 µM (TAOK2): -3.76% | inhibition at 1 µM (TYK2): -5.05% | inhibition at 1 µM (LYNb): 7.62% | inhibition at 1 µM (FER): 37.1% | inhibition at 1 µM (CK1γ1): 4.78% | inhibition at 1 µM (MST2): -8.12% | inhibition at 1 µM (CDK1/CycA2): -1.02% | inhibition at 1 µM (FLT4 (VEGFR3)): 0.74% | inhibition at 1 µM (SYK): 13.6% | inhibition at 1 µM (CK1δ): -1.29% | inhibition at 1 µM (EPHB2): -3.12% | inhibition at 1 µM (PI3K(p120gamma)): 15% | inhibition at 1 µM (BRK): 1.91% | inhibition at 1 µM (RSK4): 0% | inhibition at 1 µM (HIPK1): -5.67% | inhibition at 1 µM (PAK1): 3.22% | inhibition at 1 µM (FRK): -0.22% | inhibition at 1 µM (CLK1): 1.48% | inhibition at 1 µM (RET): 1.72%
